7 compounds from PMC6199744, “Development of Chemical Proteomics for the Folateome and Analysis of the Kinetoplastid Folateome” (ACS Infectious Diseases, 2018) can be followed below.

Where two headings read alike, the source gives them in different places.

Holding throughout (type): binding
For assay [1], the target named is T1, HeLa cell extract proteins (Homo sapiens, UniProt P13798).
T1 construct: endogenous in cells; host or cells: HeLa cell extract
T1 sequence (P13798 1-732): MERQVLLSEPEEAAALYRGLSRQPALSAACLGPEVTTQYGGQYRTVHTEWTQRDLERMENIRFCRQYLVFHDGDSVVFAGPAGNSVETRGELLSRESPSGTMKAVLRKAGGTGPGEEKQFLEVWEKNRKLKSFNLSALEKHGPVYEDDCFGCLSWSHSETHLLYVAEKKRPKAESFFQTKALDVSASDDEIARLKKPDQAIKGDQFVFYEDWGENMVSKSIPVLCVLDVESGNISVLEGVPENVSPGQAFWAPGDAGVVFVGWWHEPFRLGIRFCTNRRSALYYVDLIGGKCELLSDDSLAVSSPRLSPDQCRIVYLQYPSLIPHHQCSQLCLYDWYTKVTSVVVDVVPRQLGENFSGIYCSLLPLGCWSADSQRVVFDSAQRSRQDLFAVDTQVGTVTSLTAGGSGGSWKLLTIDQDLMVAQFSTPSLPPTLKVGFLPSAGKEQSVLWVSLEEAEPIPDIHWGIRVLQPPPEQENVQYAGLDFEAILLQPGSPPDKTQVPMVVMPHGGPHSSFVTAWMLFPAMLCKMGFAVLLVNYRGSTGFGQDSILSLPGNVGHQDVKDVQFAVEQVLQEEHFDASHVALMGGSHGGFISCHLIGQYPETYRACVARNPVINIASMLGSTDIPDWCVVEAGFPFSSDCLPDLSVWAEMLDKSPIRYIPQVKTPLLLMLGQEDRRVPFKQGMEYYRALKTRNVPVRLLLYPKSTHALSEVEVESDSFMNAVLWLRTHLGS

Assay [2] deals with T2, HeLa cell extract proteins (Homo sapiens, UniProt Q15365).
T2 construct: endogenous in cells; host or cells: HeLa cell extract

Assay [3] deals with T3, HeLa cell extract proteins (Homo sapiens, UniProt Q6ZN16).
T3 construct: endogenous in cells; host or cells: HeLa cell extract
T3 sequence (Q6ZN16 1-1313): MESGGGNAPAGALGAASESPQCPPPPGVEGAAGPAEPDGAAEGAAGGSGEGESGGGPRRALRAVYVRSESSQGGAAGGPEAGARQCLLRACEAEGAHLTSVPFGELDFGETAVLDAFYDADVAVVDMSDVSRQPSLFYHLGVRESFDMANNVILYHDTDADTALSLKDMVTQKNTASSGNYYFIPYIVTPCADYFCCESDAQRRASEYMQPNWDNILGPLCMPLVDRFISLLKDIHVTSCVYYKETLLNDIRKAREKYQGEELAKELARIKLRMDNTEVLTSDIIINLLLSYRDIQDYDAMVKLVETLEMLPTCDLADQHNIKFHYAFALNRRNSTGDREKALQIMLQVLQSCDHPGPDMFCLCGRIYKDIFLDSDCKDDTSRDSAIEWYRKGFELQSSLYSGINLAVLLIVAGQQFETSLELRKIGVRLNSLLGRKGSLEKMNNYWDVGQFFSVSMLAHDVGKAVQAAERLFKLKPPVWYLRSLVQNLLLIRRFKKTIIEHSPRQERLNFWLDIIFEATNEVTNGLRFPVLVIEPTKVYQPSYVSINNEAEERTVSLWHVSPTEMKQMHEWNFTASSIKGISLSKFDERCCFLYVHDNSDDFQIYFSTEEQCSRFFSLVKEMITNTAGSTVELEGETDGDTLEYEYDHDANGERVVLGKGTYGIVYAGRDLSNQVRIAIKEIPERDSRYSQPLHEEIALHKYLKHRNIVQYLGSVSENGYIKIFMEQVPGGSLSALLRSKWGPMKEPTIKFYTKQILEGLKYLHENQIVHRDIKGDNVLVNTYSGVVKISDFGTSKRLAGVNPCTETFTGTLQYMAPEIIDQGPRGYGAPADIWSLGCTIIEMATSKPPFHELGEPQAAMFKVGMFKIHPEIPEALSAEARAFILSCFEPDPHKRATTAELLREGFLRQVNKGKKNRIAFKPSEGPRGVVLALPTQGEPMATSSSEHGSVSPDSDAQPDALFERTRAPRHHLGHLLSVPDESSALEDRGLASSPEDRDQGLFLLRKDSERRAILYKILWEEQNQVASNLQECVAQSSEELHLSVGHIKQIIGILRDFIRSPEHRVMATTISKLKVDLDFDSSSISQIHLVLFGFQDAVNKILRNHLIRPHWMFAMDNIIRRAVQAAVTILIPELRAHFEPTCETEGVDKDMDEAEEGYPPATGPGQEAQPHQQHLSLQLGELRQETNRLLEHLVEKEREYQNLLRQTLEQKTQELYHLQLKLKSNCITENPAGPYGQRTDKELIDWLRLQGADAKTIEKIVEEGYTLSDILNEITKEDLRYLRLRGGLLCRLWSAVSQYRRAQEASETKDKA

Assay [4] deals with T4, HeLa cell extract proteins (Homo sapiens, UniProt Q9UJX4).
T4 construct: endogenous in cells; host or cells: HeLa cell extract

For assay [5], the target named is T5, HeLa cell extract proteins (Homo sapiens, UniProt Q9H0U4).
T5 construct: endogenous in cells; host or cells: HeLa cell extract

For assay [6], the target named is T6, HeLa cell extract proteins (Homo sapiens, UniProt Q9NQX3).
T6 construct: endogenous in cells; host or cells: HeLa cell extract
T6 sequence (Q9NQX3 1-736): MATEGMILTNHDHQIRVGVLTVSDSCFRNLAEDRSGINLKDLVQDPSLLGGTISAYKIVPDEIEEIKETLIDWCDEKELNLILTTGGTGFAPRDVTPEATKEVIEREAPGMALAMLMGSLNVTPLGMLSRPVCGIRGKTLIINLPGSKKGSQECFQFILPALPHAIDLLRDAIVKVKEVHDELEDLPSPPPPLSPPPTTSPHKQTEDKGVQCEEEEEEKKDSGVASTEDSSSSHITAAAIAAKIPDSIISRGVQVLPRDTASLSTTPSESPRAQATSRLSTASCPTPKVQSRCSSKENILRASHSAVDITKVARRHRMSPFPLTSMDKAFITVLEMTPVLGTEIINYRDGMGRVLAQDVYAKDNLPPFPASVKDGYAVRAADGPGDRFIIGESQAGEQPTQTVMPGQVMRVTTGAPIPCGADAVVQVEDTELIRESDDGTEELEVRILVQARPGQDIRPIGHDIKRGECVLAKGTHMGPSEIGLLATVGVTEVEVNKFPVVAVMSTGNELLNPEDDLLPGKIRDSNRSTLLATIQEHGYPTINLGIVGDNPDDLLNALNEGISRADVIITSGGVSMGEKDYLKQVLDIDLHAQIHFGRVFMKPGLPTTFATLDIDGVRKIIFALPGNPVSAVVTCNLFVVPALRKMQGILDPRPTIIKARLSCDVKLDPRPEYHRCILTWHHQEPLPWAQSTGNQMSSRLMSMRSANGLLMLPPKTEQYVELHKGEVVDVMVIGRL

The mark [7] stands for this setting: HeLa, protein APEH (ACYLAMINO-ACID-RELEASING ENZYME).

T5 sequence (Q9H0U4 whole entry): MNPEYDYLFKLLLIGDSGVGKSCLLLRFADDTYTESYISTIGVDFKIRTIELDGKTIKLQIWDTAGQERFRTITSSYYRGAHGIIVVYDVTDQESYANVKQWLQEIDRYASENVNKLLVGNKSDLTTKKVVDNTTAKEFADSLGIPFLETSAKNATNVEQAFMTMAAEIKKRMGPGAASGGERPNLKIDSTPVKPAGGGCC
T4 sequence (Q9UJX4 whole entry): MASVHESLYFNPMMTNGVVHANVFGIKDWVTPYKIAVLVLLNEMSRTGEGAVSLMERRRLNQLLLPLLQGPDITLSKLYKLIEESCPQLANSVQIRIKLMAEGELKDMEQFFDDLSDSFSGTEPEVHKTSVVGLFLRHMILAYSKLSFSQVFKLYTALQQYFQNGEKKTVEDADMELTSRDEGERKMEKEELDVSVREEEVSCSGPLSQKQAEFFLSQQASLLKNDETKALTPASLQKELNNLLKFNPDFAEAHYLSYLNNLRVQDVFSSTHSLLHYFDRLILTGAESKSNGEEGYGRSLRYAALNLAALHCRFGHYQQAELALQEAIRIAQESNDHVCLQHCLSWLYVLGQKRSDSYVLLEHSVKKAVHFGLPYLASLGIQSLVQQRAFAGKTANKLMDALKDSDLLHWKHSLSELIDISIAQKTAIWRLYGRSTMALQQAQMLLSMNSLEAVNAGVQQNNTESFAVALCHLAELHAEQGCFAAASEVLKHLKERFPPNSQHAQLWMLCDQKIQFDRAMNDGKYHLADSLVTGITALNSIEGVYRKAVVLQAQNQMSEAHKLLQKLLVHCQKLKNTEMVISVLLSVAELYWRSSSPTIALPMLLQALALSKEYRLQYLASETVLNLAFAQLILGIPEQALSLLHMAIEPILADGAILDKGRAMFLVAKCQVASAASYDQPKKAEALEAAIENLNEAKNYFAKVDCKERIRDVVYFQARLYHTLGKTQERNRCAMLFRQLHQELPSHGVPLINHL
T2 sequence (Q15365 whole entry): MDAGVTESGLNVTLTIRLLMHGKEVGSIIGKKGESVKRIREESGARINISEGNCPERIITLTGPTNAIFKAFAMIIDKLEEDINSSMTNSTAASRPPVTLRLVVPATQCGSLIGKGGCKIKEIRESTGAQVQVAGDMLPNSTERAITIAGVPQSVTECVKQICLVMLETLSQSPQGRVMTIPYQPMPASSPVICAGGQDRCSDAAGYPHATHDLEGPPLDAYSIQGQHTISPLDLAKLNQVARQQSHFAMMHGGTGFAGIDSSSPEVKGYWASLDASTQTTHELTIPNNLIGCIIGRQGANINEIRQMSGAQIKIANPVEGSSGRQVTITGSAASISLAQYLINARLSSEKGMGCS

In the case of `Nc1nc2cccc(-c3ccccc3)c2n1Cc1ccc(Cl)c(Cl)c1` [compound 3], the “fold changes relative to vehicle control” value turned out to be 1.01 in assay [1] (HeLa, protein APEH); 0.94 in assay [2] (protein PCBP1, HeLa); 1.01 in assay [3] (captured protein MAP3K15, HeLa); 1.07 in assay [4] (captured protein ANAPC5, HeLa); 1.09 in assay [5] (protein RAB1B, HeLa); 0.96 in assay [6] (protein GPHN, HeLa).

As to `NCCOCCOCC(=O)Nc1nc2ncc(CNc3ccc(C(=O)NC(CCC(=O)O)C(=O)O)cc3)nc2c(=O)[nH]1` (stereo not drawn) [compound 6], the “fold changes relative to vehicle control” value in assay [1] (setting [7]) is 0.91; in assay [2] (HeLa, protein PCBP1), 0.94; in assay [3] (HeLa, protein MAP3K15) it was 1.03; in assay [4] (HeLa, captured protein ANAPC5), 1.05; in assay [5] (HeLa, protein RAB1B) it was 0.98; in assay [6] (HeLa, captured protein GPHN), 0.99.

As for `Nc1nc2[nH]cc(CCc3ccc(C(=O)N[C@@H](CCC(=O)O)C(=O)O)cc3)c2c(=O)[nH]1` [PTX, pemetrexed], the “fold changes relative to vehicle control” value was found to be 0.96 in assay [1]; 0.88 in assay [2]; 1.07 in assay [3]; 1.07 in assay [4]; 0.93 in assay [5]; 0.83 in assay [6].

In the case of `Nc1nc2c(c(=O)[nH]1)N(C=O)C(CNc1ccc(C(=O)N[C@@H](CCC(=O)O)C(=O)O)cc1)CN2` (stereo partly drawn) [LEU, leucovorin], the “fold changes relative to vehicle control” value in assay [1] (setting [7]) was 1.08; in assay [2] (HeLa, protein PCBP1), 0.92; in assay [3] (HeLa, protein MAP3K15), 1; in assay [4] (HeLa, captured protein ANAPC5), 1.07; in assay [5] (HeLa, protein RAB1B), 0.93; in assay [6] (HeLa, captured protein GPHN), 0.81.

Take `CCCCCCOc1ccc(Cc2cnc(N)nc2N)cc1` [compound 1]: the “fold changes relative to vehicle control” value in assay [1] (HeLa, protein APEH) is 0.96; in assay [2] (protein PCBP1, HeLa) it was 1.02; in assay [3] (captured protein MAP3K15, HeLa) it was 1.03; in assay [4] (captured protein ANAPC5, HeLa), 1.06; in assay [5] (protein RAB1B, HeLa), 1.14; in assay [6] (protein GPHN, HeLa) it was 0.94.

`NCCCNc1ccc(C(=O)NC(CCC(=O)O)C(=O)O)cc1` (stereo not drawn) [compound 7]: the “fold changes relative to vehicle control” value in assay [1] (setting [7]) came to 1; in assay [2] (HeLa, protein PCBP1) it was 0.91; in assay [3] (HeLa, protein MAP3K15) it was 1.1; in assay [4] (HeLa, captured protein ANAPC5), 1.1; in assay [5] (HeLa, protein RAB1B), 0.91; in assay [6] (HeLa, captured protein GPHN), 1.03.

On to `CCCCCCOc1cccc(Cc2cnc(N)nc2N)c1` [compound 2], for which the “fold changes relative to vehicle control” value in assay [1] (HeLa, protein APEH) came out at 0.91; in assay [2] (protein PCBP1, HeLa) it was 1.08; in assay [3] (captured protein MAP3K15, HeLa), 1.02; in assay [4] (captured protein ANAPC5, HeLa) it was 1; in assay [5] (protein RAB1B, HeLa), 1.41; in assay [6] (protein GPHN, HeLa), 0.93.
